Measured values from patent publication US11702404B2, “GLP-1R modulating compounds” (priority 2019, dated 2023).
Like-named read-outs stand apart in the source and are kept apart here.

How the values were obtained:
[1] = target: GLP-1R (Homo sapiens, UniProt P43220); experiment: GLP-1R activation: cAMP increase in CHO cells stably expressing GLP-1R; type: cell-based
[2] = Microsomal stability, human liver microsomes (predicted hepatic clearance); conditions: predicted from in vitro microsomal stability data
[3] = cAMP increase, CHO cells stably expressing GLP-1R, 10 point dose response, 30 minutes incubation, read-out: EC50

Chain of GLP-1R (P43220 24-463): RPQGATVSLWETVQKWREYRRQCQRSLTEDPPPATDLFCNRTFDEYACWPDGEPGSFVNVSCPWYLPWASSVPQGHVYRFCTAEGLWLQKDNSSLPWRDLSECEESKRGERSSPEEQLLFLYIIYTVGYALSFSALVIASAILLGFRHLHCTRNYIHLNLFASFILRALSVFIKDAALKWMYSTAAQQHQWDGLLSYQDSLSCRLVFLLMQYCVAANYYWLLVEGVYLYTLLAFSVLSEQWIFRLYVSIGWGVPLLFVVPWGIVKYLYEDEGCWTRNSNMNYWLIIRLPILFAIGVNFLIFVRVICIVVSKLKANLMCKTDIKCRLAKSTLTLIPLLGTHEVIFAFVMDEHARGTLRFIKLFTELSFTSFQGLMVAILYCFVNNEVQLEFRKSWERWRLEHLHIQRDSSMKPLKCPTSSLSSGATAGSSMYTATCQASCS

Compound	EC50 ([1]; EC50 (nM))	Predicted Hepatic Clearance (Pred. Cl.) [2]	EC50 [1, 3]
COCCn1c(Cc2ccc(-c3cccc(OCc4ccc(C#N)cc4F)n3)cc2F)nc2ccc(CC(=O)O)cc21 [Example 386, 2-(2-(4-(6-((4-cyano-2-fluorobenzyl)oxy)pyridin-2-yl)-2-fluorobenzyl)-1-(2-methoxyethyl)-1H-benzo[d]imidazol-6-yl)acetic acid]	157 nM	2 mL/min/kg	
O=C(O)c1cc(F)c2nc(Cc3ccc(-c4ccc(F)c(OCc5ccc(C(F)F)cc5F)n4)cc3F)n(C[C@@H]3CCO3)c2c1 [Example 774]		2.08 mL/min/kg	0.06 nM
COCCn1c(Cc2ccc(-c3cccc(Oc4cccc5ccccc45)n3)cc2F)nc2ccc(C(=O)O)cc21 [Example 98, 2-(2-fluoro-4-(6-(naphthalen-1-yloxy)pyridin-2-yl)benzyl)-1-(2-methoxyethyl)-1H-benzo[d]imidazole-6-carboxylic acid]		7.33 mL/min/kg	913 nM
N#Cc1ccc(COc2cccc(-c3cc(F)c(Cc4nc5ccc(C(=O)O)cc5n4C[C@@H]4CC(F)(F)CO4)cc3F)n2)c(F)c1 (racemic) [Example 573, 2-(4-(6-((4-cyano-2-fluorobenzyl)oxy)pyridin-2-yl)-2,5-difluorobenzyl)-1-((4,4-difluorotetrahydrofuran-2-yl)methyl)-1H-benzo[d]imidazole-6-carboxylic acid]		6.5 mL/min/kg	0.89 nM
CN1CCO[C@H](Cn2c(Cc3cc(F)c(-c4cccc(OCc5ccc(C#N)cc5F)n4)cc3F)nc3ccc(C(=O)O)cc32)C1 [Example 639]		5 mL/min/kg	78.2 nM
O=C(O)c1ccc2nc(Cc3cc(F)c(-c4cccc(OCc5ccc(Cl)nc5OC(F)F)n4)cc3F)n(C[C@@H]3CCO3)c2c1 [Example 759]		1.83 mL/min/kg	0.64 nM
COCCn1c(Cc2c(F)cc(-c3cccc(OCc4ccc(Cl)nc4)n3)cc2F)nc2ccc(C(=O)O)cc21 [Example 654]		3.5 mL/min/kg	24.9 nM
N#Cc1ccc(COc2cccc(-c3ccc(Cc4nc5ccc(C(=O)O)cc5n4CC4(C5CC5)CC4)c(F)c3)n2)c(F)c1 [Example 293, 1-([1,1′-bi(cyclopropan)]-1-ylmethyl)-2-(4-(6-((4-cyano-2-fluorobenzyl)oxy)pyridin-2-yl)-2-fluorobenzyl)-1H-benzo[d]imidazole-6-carboxylic acid]		<1.83 mL/min/kg	3.13 nM
COc1cc(C#N)ccc1COc1cccc(-c2cc(F)c(Cc3nc4ccc(C(=O)O)cc4n3CC3(CF)CC3)cc2F)n1 [Example 409, 2-(4-(6-((4-cyano-2-methoxybenzyl)oxy)pyridin-2-yl)-2,5-difluorobenzyl)-1-((1-(fluoromethyl)cyclopropyl)methyl)-1H-benzo[d]imidazole-6-carboxylic acid]		<1.83 mL/min/kg	0.37 nM
N#Cc1ccc(COc2nccc(-c3ccc(Cc4nc5ccc(C(=O)O)nc5n4CC4(CF)CC4)c(F)c3)n2)c(F)c1 [Example 359, 2-(4-(2-((4-cyano-2-fluorobenzyl)oxy)pyrimidin-4-yl)-2-fluorobenzyl)-3-((1-(fluoromethyl)cyclopropyl)methyl)-3H-imidazo[4,5-b]pyridine-5-carboxylic acid]		<1.83 mL/min/kg	3.09 nM
N#Cc1ccc(COc2cccc(-c3cc(F)c(Cc4nc5c(F)cc(C(=O)O)cc5n4CC4(CF)CC4)cc3F)n2)c(F)c1 [Example 448, 2-(4-(6-((4-cyano-2-fluorobenzyl)oxy)pyridin-2-yl)-2,5-difluorobenzyl)-4-fluoro-1-((1-(fluoromethyl)cyclopropyl)methyl)-1H-benzo[d]imidazole-6-carboxylic]		<1.83 mL/min/kg	1.23 nM
N#Cc1ccc(COc2cccc(-c3cc(F)c(Cc4nc5ccc(C(=O)O)cc5n4Cc4ccc[nH]c4=O)cc3F)n2)c(F)c1 [Example 312, 2-(4-(6-((4-cyano-2-fluorobenzyl)oxy)pyridin-2-yl)-2,5-difluorobenzyl)-1-((2-oxo-1,2-dihydropyridin-3-yl)methyl)-1H-benzo[d]imidazole-6-carboxylic acid]		4.67 mL/min/kg	250 nM
N#Cc1ccc(COc2cccc(-c3cc(F)c(Cc4nc5ccc(C(=O)O)cc5n4CC4CC5(COC5)C4)cc3F)n2)c(F)c1 [Example 653]		2.67 mL/min/kg	17 nM
COCCn1c(Cc2ccc(-c3cc(OCc4ccc(C#N)cc4F)ccc3F)cc2F)nc2ccc(C(=O)O)cc21 [Example 28, 2-((5′-((4-cyano-2-fluorobenzyl)oxy)-2′,3-difluoro-[1,1′-biphenyl]-4-yl)methyl)-1-(2-methoxyethyl)-1H-benzo[d]imidazole-6-carboxylic acid]		3.17 mL/min/kg	94 nM
N#Cc1ccc(COc2cccc(-c3cc(F)c(Cc4nc5ccc(C(=O)O)cc5n4[C@H]4CCNC4=O)cc3F)n2)c(F)c1 [Example 630]		2.67 mL/min/kg	39.4 nM
COCCn1c(Cc2ccc(-c3nc(OCc4ccc(C#N)cc4F)ns3)cc2F)nc2ccc(C(=O)O)cc21 [Example 62, 2-(4-(3-((4-cyano-2-fluorobenzyl)oxy)-1,2,4-thiadiazol-5-yl)-2-fluorobenzyl)-1-(2-methoxyethyl)-1H-benzo[d]imidazole-6-carboxylic acid]		6.7 mL/min/kg	1430 nM
N#Cc1ccc(COc2cccc(-c3ccc(Cc4nc5ccc(C(=O)O)cc5n4Cc4cn[nH]c4)c(F)c3)n2)c(F)c1 [Example 491, 1-((1H-pyrazol-4-yl)methyl)-2-(4-(6-((4-cyano-2-fluorobenzyl)oxy)pyridin-2-yl)-2-fluorobenzyl)-1H-benzo[d]imidazole-6-carboxylic acid]		12.7 mL/min/kg	19.4 nM
N#Cc1ccc(COc2cccc(-c3ccc(Cc4nc5c(F)cc(C(=O)O)cc5n4C[C@@H]4CCO4)c(F)c3)n2)c(F)c1 [Example 455, (S)-2-(4-(6-((4-cyano-2-fluorobenzyl)oxy)pyridin-2-yl)-2-fluorobenzyl)-4-fluoro-1-(oxetan-2-ylmethyl)-1H-benzo[d]imidazole-6-carboxylic acid]		<1.83 mL/min/kg	1.87 nM
N#Cc1ccc(COc2cccc(-c3cc(F)c(Cc4nc5ccc(C(=O)O)cc5n4[C@H]4CCCOC4)cc3F)n2)c(F)c1 [Example 545, 2-(4-(6-((4-cyano-2-fluorobenzyl)oxy)pyridin-2-yl)-2,5-difluorobenzyl)-1-(tetrahydro-2H-pyran-3-yl)-1H-benzo[d]imidazole-carboxylic acid]		6.67 mL/min/kg	6.9 nM
COCCOCCn1c(Cc2ccc(-c3cccc(OCc4ccc(C#N)cc4F)n3)cc2F)nc2ccc(C(=O)O)cc21 [Example 230, 2-(4-(6-((4-cyano-2-fluorobenzyl)oxy)pyridin-2-yl)-2-fluorobenzyl)-1-(2-(2-methoxyethoxy)ethyl)-1H-benzo[d]imidazole-6-carboxylic acid]		12 mL/min/kg	27.4 nM
CCn1cncc1Cn1c(Cc2ccc(-c3cccc(OCc4ccc(C#N)cc4F)n3)c(F)c2)nc2c(F)cc(C(=O)O)cc21 [Example 452, 2-(4-(6-((4-cyano-2-fluorobenzyl)oxy)pyridin-2-yl)-3-fluorobenzyl)-1-((1-ethyl-1H-imidazol-5-yl)methyl)-4-fluoro-1H-benzo[d]imidazole-6-carboxylic acid]		7.17 mL/min/kg	0.16 nM
O=C(O)c1ccc2nc(Cc3ccc(-c4cccc(OCc5ccc(C(F)F)cc5F)n4)cc3F)n(CC34CC(CO3)C4)c2c1 [Example 647]		3.5 mL/min/kg	3.02 nM
O=C(O)c1cc(F)c2nc(Cc3cc(F)c(-c4ccc(F)c(OCc5ccc(C(F)(F)F)cc5F)n4)cc3F)n(C[C@@H]3CCO3)c2c1 [Example 765]		1.83 mL/min/kg	0.51 nM
COCCn1c(Cc2ccc(-c3cccc(OCc4ccc(C5(F)COC5)cc4)n3)cc2F)nc2ccc(C(=O)O)cc21 [Example 460, 2-(2-fluoro-4-(6-((4-(3-fluorooxetan-3-yl)benzyl)oxy)pyridin-2-yl)benzyl)-1-(2-methoxyethyl)-1H-benzo[d]imidazole-6-carboxylic acid]		12.5 mL/min/kg	15.7 nM
COC1(Cn2c(Cc3cc(F)c(-c4cccc(OCc5ccc(C#N)cc5F)n4)cc3F)nc3ccc(C(=O)O)cc32)CN(C2COC2)C1 [Example 696]		10.8 mL/min/kg	592 nM
CC(C)(Cn1c(Cc2ccc(-c3cccc(OCc4ccc(C#N)cc4F)n3)c(F)c2)nc2ccc(C(=O)O)cc21)C(F)F [Example 295, 2-(4-(6-((4-cyano-2-fluorobenzyl)oxy)pyridin-2-yl)-3-fluorobenzyl)-1-(3,3-difluoro-2,2-dimethylpropyl)-1H-benzo[d]imidazole-6-carboxylic acid]		8.3 mL/min/kg	2.12 nM
N#Cc1ccc(COc2nc(-c3cc(F)c(Cc4nc5ccc(C(=O)O)cc5n4CCOC4CC4)cc3F)ccc2F)c(F)c1 [Example 900]		1.83 mL/min/kg	1.26 nM
N#Cc1ccc(COc2cccc(-c3ccc(Cc4nc5ccc(C(=O)O)cc5n4CCC4(CF)CC4)c(F)c3)n2)c(F)c1 [Example 394, 2-(4-(6-((4-cyano-2-fluorobenzyl)oxy)pyridin-2-yl)-2-fluorobenzyl)-1-(2-(1-(fluoromethyl)cyclopropyl)ethyl)-1H-benzo[d]imidazole-6-carboxylic acid]		4.17 mL/min/kg	6.06 nM
N#Cc1ccc(COc2cccc(-c3ccc(Cc4nc5ccc(C(=O)O)cc5n4Cc4cncnc4)c(F)c3)n2)c(F)c1 [Example 532, 2-(4-(6-((4-cyano-2-fluorobenzyl)oxy)pyridin-2-yl)-2-fluorobenzyl)-1-(pyrimidin-5-ylmethyl)-1H-benzo[d]imidazole-6-carboxylic acid]		<1.83 mL/min/kg	58.6 nM
